Test results as given in US8192962B2, “Processes for detecting toxic substances” (Daikin Industries, Ltd., priority 2001, dated 2012).

System: Transport facilitation protein genes
Assay: DNA chip mRNA expression in yeast, transport facilitation protein genes (Table 5)
Type: cell-based, Saccharomyces cerevisiae S288C
Procedure, shortened: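 Cells were grown at 25° C. in YPD, treated at logarithmic phase for 2 h with a chemical at a concentration inhibiting growth but not causing death, and compared with untreated cultures. Labeled cDNA was hybridized to a DNA chip carrying all yeast genes, and the expression ratio was taken from scanner fluorescence.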

[Cl][Pb][Cl] [(4), PbCl2]
The level of expressed mRNA in the presence of chemical substance/The level of expressed mRNA in the absence of chemical substance (yeast gene YBL030C): 0.9 | The level of expressed mRNA in the presence of chemical substance/The level of expressed mRNA in the absence of chemical substance (yeast gene YBL099W): 1.4 | The level of expressed mRNA in the presence of chemical substance/The level of expressed mRNA in the absence of chemical substance (yeast gene YBR052C): 2.6 | The level of expressed mRNA in the presence of chemical substance/The level of expressed mRNA in the absence of chemical substance (yeast gene YBR068C): 2.5 | The level of expressed mRNA in the presence of chemical substance/The level of expressed mRNA in the absence of chemical substance (yeast gene YBR127C): 1.1 | The level of expressed mRNA in the presence of chemical substance/The level of expressed mRNA in the absence of chemical substance (yeast gene YBR132C): 1.8 | The level of expressed mRNA in the presence of chemical substance/The level of expressed mRNA in the absence of chemical substance (yeast gene YBR207W): 2.0 | The level of expressed mRNA in the presence of chemical substance/The level of expressed mRNA in the absence of chemical substance (yeast gene YBR293W): 1.8 | The level of expressed mRNA in the presence of chemical substance/The level of expressed mRNA in the absence of chemical substance (yeast gene YBR294W): 2.6 | The level of expressed mRNA in the presence of chemical substance/The level of expressed mRNA in the absence of chemical substance (yeast gene YBR295W): 1.1 | The level of expressed mRNA in the presence of chemical substance/The level of expressed mRNA in the absence of chemical substance (yeast gene YBR298C): 2.3 | The level of expressed mRNA in the presence of chemical substance/The level of expressed mRNA in the absence of chemical substance (yeast gene YCL025C): 1.7 | The level of expressed mRNA in the presence of chemical substance/The level of expressed mRNA in the absence of chemical substance (yeast gene YCL038C): 1.6 | The level of expressed mRNA in the presence of chemical substance/The level of expressed mRNA in the absence of chemical substance (yeast gene YCR037C): 0.8 | The level of expressed mRNA in the presence of chemical substance/The level of expressed mRNA in the absence of chemical substance (yeast gene YCR098C): 2.0 | The level of expressed mRNA in the presence of chemical substance/The level of expressed mRNA in the absence of chemical substance (yeast gene YDL128W): 1.0 | The level of expressed mRNA in the presence of chemical substance/The level of expressed mRNA in the absence of chemical substance (yeast gene YDL198C): 1.4 | The level of expressed mRNA in the presence of chemical substance/The level of expressed mRNA in the absence of chemical substance (yeast gene YDL210W): 1.1 | The level of expressed mRNA in the presence of chemical substance/The level of expressed mRNA in the absence of chemical substance (yeast gene YDL245C): 2.2 | The level of expressed mRNA in the presence of chemical substance/The level of expressed mRNA in the absence of chemical substance (yeast gene YDR038C): 0.9 | The level of expressed mRNA in the presence of chemical substance/The level of expressed mRNA in the absence of chemical substance (yeast gene YDR039C): 0.9 | The level of expressed mRNA in the presence of chemical substance/The level of expressed mRNA in the absence of chemical substance (yeast gene YDR086C): 1.4 | The level of expressed mRNA in the presence of chemical substance/The level of expressed mRNA in the absence of chemical substance (yeast gene YDR270W): 1.3 | The level of expressed mRNA in the presence of chemical substance/The level of expressed mRNA in the absence of chemical substance (yeast gene YDR298C): 1.3 | The level of expressed mRNA in the presence of chemical substance/The level of expressed mRNA in the absence of chemical substance (yeast gene YDR342C): 5.7 | The level of expressed mRNA in the presence of chemical substance/The level of expressed mRNA in the absence of chemical substance (yeast gene YDR343C): 4.6 | The level of expressed mRNA in the presence of chemical substance/The level of expressed mRNA in the absence of chemical substance (yeast gene YDR345C): 2.6 | The level of expressed mRNA in the presence of chemical substance/The level of expressed mRNA in the absence of chemical substance (yeast gene YDR387C): 2.2 | The level of expressed mRNA in the presence of chemical substance/The level of expressed mRNA in the absence of chemical substance (yeast gene YDR497C): 1.3 | The level of expressed mRNA in the presence of chemical substance/The level of expressed mRNA in the absence of chemical substance (yeast gene YEL027W): 1.1 | The level of expressed mRNA in the presence of chemical substance/The level of expressed mRNA in the absence of chemical substance (yeast gene YEL063C): 1.3 | The level of expressed mRNA in the presence of chemical substance/The level of expressed mRNA in the absence of chemical substance (yeast gene YEL065W): 0.4 | The level of expressed mRNA in the presence of chemical substance/The level of expressed mRNA in the absence of chemical substance (yeast gene YER053C): 1.7 | The level of expressed mRNA in the presence of chemical substance/The level of expressed mRNA in the absence of chemical substance (yeast gene YFL011W): 3.3 | The level of expressed mRNA in the presence of chemical substance/The level of expressed mRNA in the absence of chemical substance (yeast gene YFL041W): 1.2 | The level of expressed mRNA in the presence of chemical substance/The level of expressed mRNA in the absence of chemical substance (yeast gene YFL050C): 2.2 | The level of expressed mRNA in the presence of chemical substance/The level of expressed mRNA in the absence of chemical substance (yeast gene YFL054C): 2.2 | The level of expressed mRNA in the presence of chemical substance/The level of expressed mRNA in the absence of chemical substance (yeast gene YGL006W): 2.6 | The level of expressed mRNA in the presence of chemical substance/The level of expressed mRNA in the absence of chemical substance (yeast gene YGL008C): 0.9 | The level of expressed mRNA in the presence of chemical substance/The level of expressed mRNA in the absence of chemical substance (yeast gene YGL104C): 1.8 | The level of expressed mRNA in the presence of chemical substance/The level of expressed mRNA in the absence of chemical substance (yeast gene YGL167C): 1.3 | The level of expressed mRNA in the presence of chemical substance/The level of expressed mRNA in the absence of chemical substance (yeast gene YGL255W): 0.8 | The level of expressed mRNA in the presence of chemical substance/The level of expressed mRNA in the absence of chemical substance (yeast gene YGR055W): 0.7 | The level of expressed mRNA in the presence of chemical substance/The level of expressed mRNA in the absence of chemical substance (yeast gene YGR065C): 1.1 | The level of expressed mRNA in the presence of chemical substance/The level of expressed mRNA in the absence of chemical substance (yeast gene YGR082W): 1.0 | The level of expressed mRNA in the presence of chemical substance/The level of expressed mRNA in the absence of chemical substance (yeast gene YGR096W): 4.6 | The level of expressed mRNA in the presence of chemical substance/The level of expressed mRNA in the absence of chemical substance (yeast gene YGR138C): 1.2 | The level of expressed mRNA in the presence of chemical substance/The level of expressed mRNA in the absence of chemical substance (yeast gene YGR191W): 1.5 | The level of expressed mRNA in the presence of chemical substance/The level of expressed mRNA in the absence of chemical substance (yeast gene YGR197C): 1.0 | The level of expressed mRNA in the presence of chemical substance/The level of expressed mRNA in the absence of chemical substance (yeast gene YGR224W): 1.2
